# Earlier results, collected in patent US20250002507A1, “7,8-DIHYDRO-5H-1,6-NAPHTHYRIDINE DERIVATIVES AS POSITIVE ALLOSTERIC MODULATORS OF THE MUSCARINIC ACETYLCHOLINE RECEPTOR M4 FOR TREATING NEUROLOGICAL AND PSYCHIATRIC DISORDERS” (Vanderbilt University, priority 2021, published 2025).
# Tested on: Alzheimer's disease patients
# Details: Bodick et al. 1997; cited from earlier work
structure (smiles),measurement,value
CCCCCCOc1nsnc1C1=CCCN(C)C1 [xanomeline],effect on psychotic behavioral symptoms,reduce psychotic behavioral symptoms
